pIC50, pKi: −log10 of the molar value. Values after ≈ are worked out from the molar mass of the structure shown.
What was measured:
[1] = molecular target: T1, Sodium-dependent noradrenaline transporter (Homo sapiens, UniProt P23975); assay: Displacement of […] from NET (unknown origin) expressed in HEK cell membrane incubated for 2 hrs by liquid scintillation counter analysis
[2] = molecular target: T2, Sodium-dependent serotonin transporter (Homo sapiens, UniProt P31645); assay: biochemical; format: cell-based, HEK
Description: Displacement of [3H]-Citalopram from SERT receptor (unknown origin) expressed in HEK cell membrane incubated for 2 hrs by liquid scintillation counter analysis

[3] = molecular target: Glutamate [NMDA] receptor; assay: Displacement of […] from NMDA receptor (unknown origin) expressed in HEK cell membrane incubated for 2 hrs by liquid scintillation counter analysis
[4] = molecular target: Sigma intracellular receptor 2 (Homo sapiens, UniProt Q5BJF2); assay: Displacement of […] from sigma-2 receptor (unknown origin) expressed in HEK cell membrane incubated for 2 hrs by liquid scintillation counter analysis
[5] = molecular target: Sigma non-opioid intracellular receptor 1 (Homo sapiens, UniProt Q99720); assay: Displacement of […] from sigma-1 receptor (unknown origin) expressed in HEK cell membrane incubated for 2 hrs by liquid scintillation counter analysis
[6] = Aqueous solubility of compound in universal buffer at pH 7.4 at 100 uM incubated for 1.5 hrs under shaking condition by LC-MS/MS analysis; format: physicochemical
[7] = Aqueous solubility of compound in universal buffer at pH 3 at 100 uM incubated for 1.5 hrs under shaking condition by LC-MS/MS analysis; format: physicochemical
[8] = Stability in human liver microsomes assessed as half life at 10 uM measured upto 120 mins by LC-MS/MS analysis; format: ADME, Microsome
[9] = Efflux ratio of apparent permeability across basolateral to apical side over apical to basolateral side in dog MDCK-MDR1 cells measured after 30 to 120 mins by LC-MS analysis; format: ADME, cell-based, Canis lupus familiaris; settings: time 30-120 min
[10] = in vitro; settings: human, liver microsomes
[11] = in vitro; settings: dog, MDCK-MDR1
Description: Apparent permeability in dog MDCK-MDR1 cells from apical to basal side measured after 30 to 120 mins by LC-MS analysis

[12] = in vitro; settings: dog, MDCK-MDR1; remark: listed apart in the source
Description: Apparent permeability in dog MDCK-MDR1 cells from basal to apical side measured after 30 to 120 mins by LC-MS analysis

[13] = Cmax in Sprague-Dawley rat plasma at 2.5 mg/kg, po measured after 24 hrs by LC-MS/MS analysis; format: ADME, organism-based; set-up: route oral, dose 2.5 mg/kg, time 24 hrs
[14] = Cmax in Sprague-Dawley rat brain at 2.5 mg/kg, po measured after 24 hrs by LC-MS/MS analysis; format: ADME, organism-based; set-up: route oral, time 24 hrs, dose 2.5 mg/kg
[15] = AUC in Sprague-Dawley rat plasma at 2.5 mg/kg, po measured after 24 hrs by LC-MS/MS analysis; format: ADME, organism-based; set-up: route oral, time 24 hrs, dose 2.5 mg/kg
[16] = AUC in Sprague-Dawley rat brain at 2.5 mg/kg, po measured after 24 hrs by LC-MS/MS analysis; format: ADME, organism-based; set-up: route oral, time 24 hrs, dose 2.5 mg/kg
[17] = Protein binding in Sprague-Dawley rat plasma assessed as unbound fraction at 20 uM by NMR analysis; format: ADME, cell-free
[18] = Protein binding in Sprague-Dawley rat brain plasma assessed as unbound fraction at 5 uM measured after 4 hrs by LC-MS analysis; format: ADME, tissue-based
[19] = Unbound brain-to-plasma concentration ratio in Sprague-Dawley rat; format: ADME, cell-free; settings: read-out: K(p,uu,brain)
[20] = Volume of distribution in Sprague-Dawley rat at 2.5 mg/kg, po measured after 24 hrs by LC-MS/MS analysis; format: ADME, organism-based; settings: in vivo
[21] = Clearance in Sprague-Dawley rat plasma at 2.5 mg/kg, po measured after 24 hrs by LC-MS/MS analysis; format: ADME, organism-based
[22] = Half life in Sprague-Dawley rat plasma at 2.5 mg/kg, po measured after 24 hrs by LC-MS/MS analysis; format: ADME, organism-based
[23] = Half life in Sprague-Dawley rat brain at 2.5 mg/kg, po measured after 24 hrs by LC-MS/MS analysis; format: ADME, organism-based
[24] = molecular target: T2, Sodium-dependent serotonin transporter; format: cell-based, HEK293
[25] = molecular target: T1, Sodium-dependent noradrenaline transporter; assay: Inhibition of human NET expressed in human HEK293 cells assessed as inhibition of substrate transport measured after 1 hr by flourescence based plate reader assay; format: cell-based
[26] = molecular target: hERG (KCNH2) (Homo sapiens, UniProt Q12809); assay: Inhibition of human ERG at 10 uM measured after 15 mins by plate reader method relative to control; format: toxicity
Chain of hERG (KCNH2) (Q12809 whole entry): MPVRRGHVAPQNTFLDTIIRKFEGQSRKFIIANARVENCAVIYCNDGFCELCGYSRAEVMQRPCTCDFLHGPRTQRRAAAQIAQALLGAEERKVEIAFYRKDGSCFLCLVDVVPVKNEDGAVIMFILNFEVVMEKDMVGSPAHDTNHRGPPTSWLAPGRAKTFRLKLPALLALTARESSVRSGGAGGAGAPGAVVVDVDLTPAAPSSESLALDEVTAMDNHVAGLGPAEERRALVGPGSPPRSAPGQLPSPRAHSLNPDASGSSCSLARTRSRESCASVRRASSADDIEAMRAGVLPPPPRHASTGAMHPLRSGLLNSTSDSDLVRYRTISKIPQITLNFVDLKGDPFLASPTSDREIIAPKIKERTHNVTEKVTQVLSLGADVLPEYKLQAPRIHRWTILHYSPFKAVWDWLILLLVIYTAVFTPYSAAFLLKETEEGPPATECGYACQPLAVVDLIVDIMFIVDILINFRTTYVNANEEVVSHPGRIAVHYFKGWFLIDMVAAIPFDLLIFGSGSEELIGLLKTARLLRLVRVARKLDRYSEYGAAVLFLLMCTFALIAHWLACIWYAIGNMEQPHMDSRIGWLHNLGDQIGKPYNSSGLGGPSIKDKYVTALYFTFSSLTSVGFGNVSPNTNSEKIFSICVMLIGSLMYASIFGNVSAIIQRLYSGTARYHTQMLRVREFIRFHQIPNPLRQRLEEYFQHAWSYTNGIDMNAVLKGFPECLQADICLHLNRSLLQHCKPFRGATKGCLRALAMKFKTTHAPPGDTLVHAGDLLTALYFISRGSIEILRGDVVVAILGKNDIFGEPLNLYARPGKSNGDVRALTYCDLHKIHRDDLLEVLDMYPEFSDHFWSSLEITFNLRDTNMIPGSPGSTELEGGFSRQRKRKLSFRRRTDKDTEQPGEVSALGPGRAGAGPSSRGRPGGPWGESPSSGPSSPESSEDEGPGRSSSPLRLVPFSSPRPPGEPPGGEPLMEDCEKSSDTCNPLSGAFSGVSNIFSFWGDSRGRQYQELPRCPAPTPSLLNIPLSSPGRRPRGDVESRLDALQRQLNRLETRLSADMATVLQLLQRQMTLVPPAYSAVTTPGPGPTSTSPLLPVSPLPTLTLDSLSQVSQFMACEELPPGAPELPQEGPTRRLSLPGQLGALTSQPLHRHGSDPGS

Chain of Sigma non-opioid intracellular receptor 1 (Q99720 whole entry): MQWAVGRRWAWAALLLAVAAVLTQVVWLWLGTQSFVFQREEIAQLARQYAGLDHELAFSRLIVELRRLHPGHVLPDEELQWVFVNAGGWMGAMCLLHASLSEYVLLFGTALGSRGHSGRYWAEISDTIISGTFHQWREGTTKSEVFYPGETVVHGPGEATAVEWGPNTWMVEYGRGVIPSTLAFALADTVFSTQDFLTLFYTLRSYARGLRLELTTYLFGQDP
T2 sequence (P31645 whole entry): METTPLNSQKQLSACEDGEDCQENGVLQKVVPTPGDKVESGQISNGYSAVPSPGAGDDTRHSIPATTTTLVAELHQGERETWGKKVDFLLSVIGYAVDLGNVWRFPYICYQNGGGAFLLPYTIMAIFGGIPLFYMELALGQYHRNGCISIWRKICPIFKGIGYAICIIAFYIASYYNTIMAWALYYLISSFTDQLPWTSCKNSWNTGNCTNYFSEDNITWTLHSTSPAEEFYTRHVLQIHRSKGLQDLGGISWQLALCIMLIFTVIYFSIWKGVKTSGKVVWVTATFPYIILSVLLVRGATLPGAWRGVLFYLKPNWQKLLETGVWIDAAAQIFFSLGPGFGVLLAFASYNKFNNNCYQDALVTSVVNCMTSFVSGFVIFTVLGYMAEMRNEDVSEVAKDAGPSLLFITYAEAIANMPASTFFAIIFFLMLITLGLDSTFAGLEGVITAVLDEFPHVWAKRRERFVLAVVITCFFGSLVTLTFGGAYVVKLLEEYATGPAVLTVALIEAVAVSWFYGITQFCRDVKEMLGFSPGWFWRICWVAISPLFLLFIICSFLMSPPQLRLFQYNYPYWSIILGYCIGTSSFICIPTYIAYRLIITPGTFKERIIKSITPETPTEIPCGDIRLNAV
T1 sequence (P23975 whole entry): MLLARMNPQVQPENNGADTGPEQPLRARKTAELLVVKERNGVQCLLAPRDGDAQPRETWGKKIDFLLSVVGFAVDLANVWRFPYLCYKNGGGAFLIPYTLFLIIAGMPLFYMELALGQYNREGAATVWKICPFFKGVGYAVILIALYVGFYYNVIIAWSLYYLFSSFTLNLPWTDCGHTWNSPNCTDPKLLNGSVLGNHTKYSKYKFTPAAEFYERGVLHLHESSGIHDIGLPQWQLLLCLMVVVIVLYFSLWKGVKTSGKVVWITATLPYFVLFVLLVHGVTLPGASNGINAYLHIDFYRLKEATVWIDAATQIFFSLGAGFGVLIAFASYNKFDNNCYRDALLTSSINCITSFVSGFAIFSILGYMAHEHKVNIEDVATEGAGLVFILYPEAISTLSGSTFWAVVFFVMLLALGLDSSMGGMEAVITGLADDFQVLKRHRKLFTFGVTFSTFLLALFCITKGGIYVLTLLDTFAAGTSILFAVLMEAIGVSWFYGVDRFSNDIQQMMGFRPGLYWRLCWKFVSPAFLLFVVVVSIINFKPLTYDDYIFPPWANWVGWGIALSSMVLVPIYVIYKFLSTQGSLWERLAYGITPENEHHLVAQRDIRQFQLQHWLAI
Chain of Sigma intracellular receptor 2 (Q5BJF2 whole entry): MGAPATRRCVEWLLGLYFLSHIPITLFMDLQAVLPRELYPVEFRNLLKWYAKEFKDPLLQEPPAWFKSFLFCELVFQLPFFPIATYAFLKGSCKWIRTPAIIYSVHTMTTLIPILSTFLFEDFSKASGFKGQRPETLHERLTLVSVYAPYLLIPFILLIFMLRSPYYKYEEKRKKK

Compound	pKi [1]	pKi [2]	pKi [3]	pKi [4]	pKi [5]	solubility at 1.5 h, 100 µM [6] [µM]	solubility at 1.5 h, 100 µM [7] [µM]	half-life at 10 µM [8] [h]	efflux ratio [9]	CLint scaled at 2 h, 10 µM [10] [mL/min/kg]	Papp A→B [11] [×10⁻⁶ cm/s]	Papp B→A [12] [×10⁻⁶ cm/s]	pIC50 [24]	pIC50 [25]	inhibition at 0.25 h, 10 µM [26] [%]	other results
CN1CC[C@@]23CCCC[C@@H]2[C@@H]1Cc1ccc(C(F)(F)C(F)(F)F)cc13	< 5.00	< 5.00	< 5.00	5.85	< 5.00	> 100	77 (≈ 27.7 µg/mL)	1.45	1	14.4	0.831	0.833	–	–	–	–
[2H]C([2H])([2H])N1CC[C@@]23CCCC[C@@H]2[C@@H]1Cc1ccc(C(F)F)cc13	–	–	–	–	–	94 (≈ 27.7 µg/mL)	70 (≈ 20.6 µg/mL)	2.03	–	10.2	–	–	–	–	–	Cmax [13]: 66 ng/mL; Cmax [14]: 854 ng/mL; AUC at 24 h [15]: 353 ng·h/mL; AUC at 24 h [16]: 4060 ng·h/mL; Cp(f) [17]: 28.8%; Cp(f) [18]: 9%; Kp uu at 20 µM [19]: 4.1; Vd [20]: 31 L/kg; CL/F [21]: 135 mL/min/kg; half-life [22]: 2.65 h; half-life [23]: 1.62 h
[2H]C([2H])([2H])N1CC[C@@]23CCCC[C@@H]2[C@@H]1Cc1ccc(C(F)(F)F)cc13	–	–	–	–	–	95 (≈ 29.7 µg/mL)	70 (≈ 21.9 µg/mL)	1.34	–	15.4	–	–	–	–	–	–
CN1CC[C@@]23CCCC[C@@H]2[C@@H]1Cc1ccc(C(F)F)cc13	7.46	7.29	< 5.00	6.45	6.84	> 100	> 100	4.05	0.81	5.13	1.35	1.1	7.62	6.03	12	Cmax [13]: 27 ng/mL; Cmax [14]: 674 ng/mL; AUC at 24 h [15]: 144 ng·h/mL; AUC at 24 h [16]: 4930 ng·h/mL; Kp uu at 20 µM [19]: 7.8; Vd [20]: 85 L/kg; CL/F [21]: 288 mL/min/kg; half-life [22]: 3.33 h; half-life [23]: 2.57 h
[2H]C([2H])([2H])N1CC[C@@]23CCCC[C@@H]2[C@@H]1Cc1ccc(C(C)(F)F)cc13	–	–	–	–	–	95 (≈ 29.3 µg/mL)	67 (≈ 20.7 µg/mL)	5.38	–	5.39	–	–	–	–	–	–
CN1CC[C@@]23CCCC[C@@H]2[C@@H]1Cc1ccc(C(F)(F)F)cc13	< 5.00	6.90	< 5.00	6.05	6.09	> 100	77 (≈ 23.8 µg/mL)	3.2	0.75	6.48	1.22	0.915	7.22	5.98	5.1	–
CN1CC[C@@]23CCCC[C@@H]2[C@@H]1Cc1ccc(C(C)(F)F)cc13	< 5.00	6.52	< 5.00	6.08	6.17	> 100	90 (≈ 27.5 µg/mL)	2.47	1.09	8.42	0.763	0.833	–	–	–	–
CN1CC[C@@]23CCCC[C@@H]2[C@@H]1Cc1ccc(OC(F)F)cc13	< 5.00	6.73	< 5.00	5.89	6.25	> 100	76 (≈ 23.4 µg/mL)	4.22	0.77	4.94	1.28	0.979	7.26	< 5.00	34.9	–

— ChEMBL document CHEMBL5038679, “Fluoroalkylation of Dextromethorphan Improves CNS Exposure and Metabolic Stability” (ACS Med Chem Lett, 2022)
